Data reported in patent publication US20240366842A1, “DECELLULARIZED TISSUE HYDROGELS” (THE UNIVERSITY OF NOTTINGHAM, priority 2021, published 2024).

What was measured:
[1] = test system: SH-SY5Y (human neuroblastoma cell line); experiment: LDH cytotoxicity assay, indirect (extract) testing; format: cell-based; details: media conditioned 72 hours, cells exposed 24 hours, 1 mM in 5% v/v DMSO, 10 mM in 10% v/v DMSO
Method: (§1) The cytotoxicity of PA crosslinked decellularized tissue hydrogels was assessed by an LDH assay in which hydrogels were incubated with SH-SY5Y (human neuroblastoma cell line).
(§2) Crosslinkers tested were: • PA [publicly available food supplement] • Purified oligomeric PA (OPA) [reference standard quality] • GA • GP
(§3) These were all tested in 1 and 10 mM concentrations, with the 1 mM in a solution containing 5% v/v of DMSO, and the 10 mM in a solution containing 10% v/v DMSO.
(§4) The LDH assay quantifies how many cells have died by quantifying the level of lactate that is present in the culture medium which will have been released upon cell membrane disruption during their death. The assay contains […] releases NADH which in turn can react with the dye present in the assay solutions to produce a colorimetric change. This change can be read through absorbance on a microplate spectrophotometer.
(§5) All results for the LDH have been calculated to % cytotoxicity as per the following formula recommended by the manufacturer: […]
Gels were made and crosslinked as per normal procedure and immersed in culture media for 72 hours conditioning. The conditioned culture media was then filtered and placed onto cells for a period of 24 hours. Following exposure to the conditioned media, a sample of the media was removed for testing through LDH.

[2] = test system: SH-SY5Y (human neuroblastoma cell line); experiment: LDH cytotoxicity assay, direct testing; format: cell-based; details: gel in contact with cell monolayer 24 hours, 1 mM in 5% v/v DMSO, 10 mM in 10% v/v DMSO
Method: as §1, §2, §3, §4, §5
Gels were made and crosslinked as per normal procedure and immersed in Hanks balanced salt solution (HBSS) containing 1% v/v of antibiotics and antimycotics overnight. The gels were then removed and immersed into culture media for 2 hours before placing on top of the cell monolayer and ensuring direct contact. […]

Triton-X-100 [5% Triton] was tested, and the “LDH (% cytotoxicity relative to Triton)” value [1] was 100% and the “LDH (% cytotoxicity relative to Triton)” value [2] was 100%.
